Columns and labels:
galectin-1 = galectin-1 (Homo sapiens, UniProt P09382); test: Fluorescence anisotropy assay, affinity for galectin-1; format: binding; conditions: compound as inhibitor of the interaction between galectin and a fluorescein tagged saccharide probe; read-out: Gal-1 Kd
Experimental: (§1) The affinity of Example 1-39 for galectins were determined by a fluorescence anisotropy assay where the compound was used as an inhibitor of the interaction between galectin and a fluorescein tagged saccharide probe as described Sarme, P., Kahl-Knutsson, B., Huflejt, M., Nilsson, U. J., and Leffler H. (2004) Fluorescence polarization as an analytical tool to evaluate galectin-ligand interactions. Anal. Biochem. 334: 36-47, (Sarme et al., 2004) and Monovalent interactions of Galectin-1 By Salomonsson, Emma; Larumbe, Amaia; Tejler, Johan; Tullberg, Erik; Rydberg, Hanna; Sundin, Anders; Khabut, Areej; Frejd, Torbjorn; Lobsanov, Yuri D.; Rini, James M.; et al, From Biochemistry (2010), 49(44), 9518-9532, (Salomonsson et al., 2010).

galectin-3 = galectin-3 (Homo sapiens, UniProt P17931); test: Fluorescence anisotropy assay, affinity for galectin-3; format: binding; conditions: compound as inhibitor of the interaction between galectin and a fluorescein tagged saccharide probe; read-out: Gal-3 Kd
Experimental: as §1

Sequence of galectin-3 (P17931 whole entry): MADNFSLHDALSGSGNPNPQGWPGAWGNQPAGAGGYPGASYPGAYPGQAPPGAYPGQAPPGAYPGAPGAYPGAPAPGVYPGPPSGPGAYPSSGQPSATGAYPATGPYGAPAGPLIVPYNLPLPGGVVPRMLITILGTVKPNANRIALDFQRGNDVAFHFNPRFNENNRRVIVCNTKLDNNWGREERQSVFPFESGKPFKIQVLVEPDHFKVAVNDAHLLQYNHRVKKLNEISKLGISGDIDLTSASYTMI
Sequence of galectin-1 (P09382 whole entry): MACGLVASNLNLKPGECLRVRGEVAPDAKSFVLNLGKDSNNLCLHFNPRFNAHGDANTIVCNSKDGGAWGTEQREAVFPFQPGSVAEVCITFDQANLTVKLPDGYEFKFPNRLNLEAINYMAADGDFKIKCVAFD

Structure (SMILES): COC1C(n2cc(-c3nc(C)cs3)nn2)[C@@H](O)C(CO)O[C@H]1c1ccnn1-c1cc(Cl)ccc1C(F)(F)F (stereo partly drawn) [Example 4, 5-Chloro-1-{5-{3-deoxy-3-[4-(4-methylthiazol-2-yl)-1H-1,2,3-triazol-1-yl]-2-O-methyl-β-D-galactopyranosyl}-1H-1,2-pyrazol-1-yl}-2-(trifluoromethyl)benzene]
- Kd (galectin-1): 260 nM
- Kd (galectin-3): 3260 nM

Structure (SMILES): COC1C(n2cc(-c3nc(Cl)cs3)nn2)[C@@H](O)C(CO)O[C@H]1c1cc(C(N)=O)nn1-c1cc(Cl)ccc1C(F)(F)F (stereo partly drawn) [Example 39, 1-{3-Aminocarbonyl-5-{3-[4-(4-chlorothiazol-2-yl)-1H-1,2,3-triazol-1-yl]-3-deoxy-2-O-methyl-β-D-galactopyranosyl}-1H-1,2-pyrazol-1-yl}-5-chloro-2-(trifluoromethyl)benzene]
- Kd (galectin-1): 200 nM
- Kd (galectin-3): 320 nM

Structure (SMILES): CCc1cc([C@@H]2OC(CO)[C@H](O)C(n3cc(-c4nc(Cl)cs4)nn3)C2OC)n(-c2cc(Cl)ccc2C(F)(F)F)n1 (stereo partly drawn) [Example 30, 1-{5-{3-[4-(4-Chlorothiazol-2-yl)-1H-1,2,3-triazol-1-yl]-3-deoxy-2-O-methyl-β-D-galactopyranosyl}-3-ethyl-1H-1,2-pyrazol-1-yl}-5-chloro-2-(trifluoromethyl)benzene]
- Kd (galectin-1): 100 nM
- Kd (galectin-3): 680 nM

Structure (SMILES): OCC1O[C@@H](c2ccnn2-c2cc(Cl)ccc2C(F)(F)F)C(O)C(n2cc(-n3ccc(Cl)n3)nn2)[C@H]1O (stereo partly drawn) [Example 8, 1-{5-{3-[4-(3-Chloro-1H-1,2-pyrazol-1-yl)-1H-1,2,3-triazol-1-yl]-3-deoxy-β-D-galactopyranosyl}-1H-1,2-pyrazol-1-yl}-5-chloro-2-(trifluoromethyl)benzene]
- Kd (galectin-1): 270 nM
- Kd (galectin-3): 880 nM

Structure (SMILES): COC1C(n2cc(-c3nc(Cl)cs3)nn2)[C@@H](O)C(CO)O[C@H]1c1ccnn1-c1cc(Cl)ccc1C(F)(F)F (stereo partly drawn) [Example 1, 1-{5-{3-[4-(4-Chlorothiazol-2-yl)-1H-1,2,3-triazol-1-yl]-3-deoxy-2-O-methyl-β-D-galactopyranosyl}-1H-1,2-pyrazol-1-yl}-5-chloro-2-(trifluoromethyl)benzene]
- Kd (galectin-1): 36 nM
- Kd (galectin-3): 450 nM

Structure (SMILES): COC1C(n2cc(-c3nc(Cl)cs3)nn2)[C@@H](O)C(CO)O[C@H]1c1ccnn1-c1cc(Cl)c(F)cc1C(F)(F)F (stereo partly drawn) [Example 22, 1-{5-{3-[4-(4-Chlorothiazol-2-yl)-1H-1,2,3-triazol-1-yl]-3-deoxy-2-O-methyl-β-D-galactopyranosyl}-1H-1,2-pyrazol-1-yl}-5-chloro-4-fluoro-2-(trifluoromethyl)benzene]
- Kd (galectin-1): 43 nM
- Kd (galectin-3): 850 nM

Structure (SMILES): OCC1O[C@@H](c2ccnn2-c2cc(Cl)ccc2C(F)(F)F)C(O)C(n2cc(-c3nc(Cl)cs3)nn2)[C@H]1O (stereo partly drawn) [Example 11, 1-{5-{3-[4-(4-Chlorothiazol-2-yl)-1H-1,2,3-triazol-1-yl]-3-deoxy-β-D-galactopyranosyl}-1H-1,2-pyrazol-1-yl}-5-chloro-2-(trifluoromethyl)benzene]
- Kd (galectin-1): 48 nM
- Kd (galectin-3): 430 nM

Structure (SMILES): COC1C(n2cc(-c3nccs3)nn2)[C@@H](O)C(CO)O[C@H]1c1ccnn1-c1cc(Cl)ccc1C(F)(F)F (stereo partly drawn) [Example 2, 5-Chloro-1-{5-{3-deoxy-2-O-methyl-3-[4-(2-thiazolyl)-1H-1,2,3-triazol-1-yl]-β-D-galactopyranosyl}-1H-1,2-pyrazol-1-yl}-2-(trifluoromethyl)benzene]
- Kd (galectin-1): 170 nM
- Kd (galectin-3): 7560 nM

Structure (SMILES): COC1C(n2cc(-c3cscn3)nn2)[C@@H](O)C(CO)O[C@H]1c1ccnn1-c1cc(Cl)ccc1C(F)(F)F (stereo partly drawn) [Example 38, 5-Chloro-1-{5-{3-deoxy-2-O-methyl-3-[4-(4-thiazolyl)-1H-1,2,3-triazol-1-yl]-β-D-galactopyranosyl}-1H-1,2-pyrazol-1-yl}-2-(trifluoromethyl)benzene]
- Kd (galectin-1): 120 nM
- Kd (galectin-3): 4900 nM

Structure (SMILES): COC1C(n2cc(-c3csc(O)n3)nn2)[C@@H](O)C(CO)O[C@H]1c1ccnn1-c1cc(Cl)c(Cl)cc1C(F)(F)F (stereo partly drawn) [Example 36, 4,5-Dichloro-1-{5-{3-deoxy-3-[4-(2-hydroxythiazol-4-yl)-1H-1,2,3-triazol-1-yl]-2-O-methyl-β-D-galactopyranosyl}-1H-1,2-pyrazol-1-yl}-2-(trifluoromethyl)benzene]
- Kd (galectin-1): 26 nM
- Kd (galectin-3): 9400 nM

Structure (SMILES): COC1C(n2cc(-c3nc(Cl)cs3)nn2)[C@@H](O)C(CO)O[C@H]1c1cc(C)nn1-c1cc(Cl)ccc1C(F)(F)F (stereo partly drawn) [Example 13, 1-{5-{3-[4-(4-Chlorothiazol-2-yl)-1H-1,2,3-triazol-1-yl]-3-deoxy-2-O-methyl-β-D-galactopyranosyl}-3-methyl-1H-1,2-pyrazol-1-yl}-5-chloro-2-(trifluoromethyl)benzene]
- Kd (galectin-1): 36 nM
- Kd (galectin-3): 290 nM

Structure (SMILES): COC1C(n2cc(-c3nc(Cl)cs3)nn2)[C@@H](O)C(CO)O[C@H]1c1cc(Br)nn1-c1cc(Cl)ccc1C(F)(F)F (stereo partly drawn) [Example 26, 1-{3-Bromo-5-{3-[4-(4-chlorothiazol-2-yl)-1H-1,2,3-triazol-1-yl]-3-deoxy-2-O-methyl-β-D-galactopyranosyl}-1H-1,2-pyrazol-1-yl}-5-chloro-2-(trifluoromethyl)benzene]
- Kd (galectin-1): 66 nM
- Kd (galectin-3): 750 nM

Structure (SMILES): COC1[C@@H](n2cc(-c3nc(Cl)cs3)nn2)[C@@H](O)C(CO)O[C@H]1c1ccnn1-c1cc(Br)c(F)cc1C(F)(F)F (stereo partly drawn) [Example 23, 5-Bromo-1-{5-{3-[4-(4-chlorothiazol-2-yl)-1H-1,2,3-triazol-1-yl]-3-deoxy-2-O-methyl-β-D-galactopyranosyl}-1H-1,2-pyrazol-1-yl}-4-fluoro-2-(trifluoromethyl)benzene]
- Kd (galectin-1): 24 nM
- Kd (galectin-3): 290 nM

Structure (SMILES): OCC1O[C@@H](c2ccnn2-c2cc(Br)c(F)cc2C(F)(F)F)C(O)[C@@H](n2cc(-c3nc(Cl)cs3)nn2)[C@H]1O (stereo partly drawn) [Example 24, 5-Bromo-1-{5-{3-[4-(4-chlorothiazol-2-yl)-1H-1,2,3-triazol-1-yl]-3-deoxy-β-D-galactopyranosyl}-1H-1,2-pyrazol-1-yl}-4-fluoro-2-(trifluoromethyl)benzene]
- Kd (galectin-1): 36 nM
- Kd (galectin-3): 200 nM

Structure (SMILES): OCC1O[C@@H](c2ccnn2-c2cc(Cl)ccc2C(F)(F)F)C(O)C(n2cc(-c3ncc(Cl)s3)nn2)[C@H]1O (stereo partly drawn) [Example 10, 1-{5-{3-[4-(5-Chlorothiazol-2-yl)-1H-1,2,3-triazol-1-yl]-3-deoxy-β-D-galactopyranosyl}-1H-1,2-pyrazol-1-yl}-5-chloro-2-(trifluoromethyl)benzene]
- Kd (galectin-1): 43 nM
- Kd (galectin-3): 330 nM

Structure (SMILES): C=C(C)c1cc([C@@H]2OC(CO)[C@H](O)C(n3cc(-c4nc(Cl)cs4)nn3)C2OC)n(-c2cc(Cl)ccc2C(F)(F)F)n1 (stereo partly drawn) [Example 27, 1-{5-{3-[4-(4-Chlorothiazol-2-yl)-1H-1,2,3-triazol-1-yl]-3-deoxy-2-O-methyl-β-D-galactopyranosyl}-3-(1-methylethenyl)-1H-1,2-pyrazol-1-yl}-5-chloro-2-(trifluoromethyl)benzene]
- Kd (galectin-1): 540 nM
- Kd (galectin-3): 1200 nM

Structure (SMILES): CCOC(=O)c1cc([C@@H]2OC(CO)[C@H](O)C(n3cc(-c4nc(Cl)cs4)nn3)C2OC)n(-c2cc(Cl)ccc2C(F)(F)F)n1 (stereo partly drawn) [Example 17, 1-{5-{3-[4-(4-Chlorothiazol-2-yl)-1H-1,2,3-triazol-1-yl]-3-deoxy-2-O-methyl-β-D-galactopyranosyl}-3-ethoxycarbonyl-1H-1,2-pyrazol-1-yl}-5-chloro-2-(trifluoromethyl)benzene]
- Kd (galectin-1): 240 nM
- Kd (galectin-3): 880 nM

— patent US20240132531A1, “NOVEL GALACTOSIDE INHIBITOR OF GALECTINS” (GALECTO BIOTECH AB, priority 2020, published 2024)
